From US20230322815A1, “NOVEL COMPOUNDS AND THERAPEUTIC USES THEREOF” (University of Huddersfield, priority 2020, published 2023)

What was measured:
HCT116 p53^−/− = assay: Chemosensitivity (MTT, 96 h continuous exposure); format: cell-based, human
Procedure: FIG. 7. Chemosensitivity response of a panel of human cancer and non-cancer cell lines to 96 h continuous exposure to self-assembling test compounds. a, The potency of compounds tested against cancer (HT-29, DLD-1, HCT116 p53^+/+ and […], PSN1, MiaPaCa2, BxPC3, A549, H460 and GBM1) and non-cancer cells (ARPE-19, MCF10A and NP1). Each value represents the mean IC50±standard deviation from a minimum of three independent experiments. b,c, The selectivity index (SI) for [L2Cu3]^6+ (b) and [L2Zn3]^6+ (c) for the indicated cancer cell lines; SI is defined as the mean IC50 against the particular non-cancer cell line model divided by the mean IC50 against the particular cancer cell line. […] As the SI value is calculated using the mean IC50 values, experimental error is not included in these figures. d,e, IC50 values for the clinically approved platinates (cisplatin, oxaliplatin and carboplatin) and [L2Mn3]^6+ and the corresponding SI results.
All cell lines used were maintained at low passage in antibiotic-free media and were obtained from ATCC (LGC Standards, Middlesex, UK) unless otherwise stated (Methods). HT29, DLD-1, HCT116 p53^+/+ and HCT116 p53^−/− are all colorectal adenocarcinoma cell lines derived from different individuals and harbor different combinations of oncogenic lesions (except for the HCT116 isogenic cancer cell clones that are genetically identical except for p53 status). PSN-1, BxPC-3 and MiaPaCa2 are pancreatic carcinoma cell lines and A549 and H460 are lung carcinoma cell lines. HT29, DLD-1, PSN-1, BxPC-3, A549 and H460 cell lines were cultured in RPMI-1640 growth media (Sigma) containing 2 mM L-glutamine, 1 mM sodium pyruvate and 10% fetal bovine serum (FBS). HCT116 (p53^+/+ and p53^−/−) and MiaPaCa2 cell lines were cultured in Dulbecco's Modified Eagle's Medium (Sigma), 2 mM L-glutamine and 10% FBS. The ARPE-19 retinal epithelial non-cancer cell line (Dunn et al., 1996) was cultured in DMEM/F12 media (Gibco), 2 mM L-glutamine, 1 mM sodium pyruvate and 10% FBS. The MCF10A non-cancerous human breast epithelial cell line was cultured in Minimal Essential Media Eagle (Sigma), 2 mM L-glutamine, 1 mM sodium pyruvate, 10% FBS and 1×non-essential amino acids (NEAA). NP1 and GBM1 cells were cultured on plasticware coated with poly-L-ornithine (5 μg/ml) and laminin (2.4 μg/ml) (Polson et al., 2018; Da Silva et al., 2019). […]
[L2M3]^6+ and all the other self-assembling complexes were freshly formed by adding DMSO to individual components mixing together by pipetting. […] Media and MTT were removed and formazan crystals were dissolved in 150 μl of DMSO and the absorbance of the resulting solution determined at 540 nm. […]

ARPE19 non-cancer cells = assay: Cellular ATP levels; format: cell-based, human; settings: 100 μM, 20 h
Procedure: FIG. 20. The effects of [L2Cu3]^6+, [L2Zn3]^6+ and [L2Mn3]^6+ on cellular ATP levels in the ARPE19 non-cancer and HCT116 p53^+/+ cancer cells. The effects of 20 h treatment with the indicated concentrations of [L2Cu3]^6+, [L2Zn3]^6+, or [L2Mn3]^6+ on total cellular levels of ATP compared to levels in vehicle control-treated ARPE19 or HCT116^+/+ cells. n=3 biological repeats, students t-test (p values).
Cellular ATP studies: The effects of 20 h treatment with a range of different concentrations of [L2Cu3]^6+, [L2Zn3]^6+ and [L2Mn3]^6+ on total cellular ATP levels in HCT116 p53^+/+ and ARPE19 cells are presented in FIG. 20. Differential effects are observed depending on the metal in the complex, with [L2Mn3]^6+ having the most profound effects on both the HCT116 p53^+/+ cancer and ARPE19 non-cancer cells. 6.25 μM [L2Mn3]^6+ treatment for 20 h reduced ATP levels in the HCT116 p53^+/+ cancer cells to <50% with ATP levels declining less in the ARPE19 non-cancer cells but reaching ˜40% with 100 μM [L2Mn3]^6+ treatment. […] Effects of [L2Cu3]^6+ on ATP levels was much less, with ATP levels in the HCT116 cells reduced to <50% only at the highest concentration of 100 μM.

[Zn+2].[Zn+2].[Zn+2].c1ccc(-c2csc(NCCN(CCNc3nc(-c4ccccn4)cs3)CCNc3nc(-c4ccccn4)cs3)n2)nc1.c1ccc(-c2csc(NCCN(CCNc3nc(-c4ccccn4)cs3)CCNc3nc(-c4ccccn4)cs3)n2)nc1 [[L2Zn3]^6+]
selectivity index (IC50 non-cancer cells / IC50 cancer cells) (HCT116 p53^−/−; HCT116 p53^−/− compared to ARPE-19): over 2000
selectivity index (IC50 non-cancer cells / IC50 cancer cells) (HCT116 p53^−/−; HCT116 p53^−/− compared to MCF10A): over 2000
IC50 (HCT116 p53^−/−; HCT116 p53^−/−, 96 h, MTT): 0.07 ± 0.013 µM
fold more active towards HCT116 p53^−/− than HCT116 p53^+/+ (HCT116 p53^−/−; based on 96 h IC50 values): ~6 fold
ATP levels compared to vehicle control (ARPE19 non-cancer cells): > 70%
